According to patent publication US20260250318A1, “COMPOSITIONS AND METHODS FOR CROSSING THE BLOOD BRAIN BARRIER” (VOYAGER THERAPEUTICS, INC., priority 2022, published 2026):

System: brain
Experiment: Maturation of TTM-001 capsid, NGS enrichment in brain of CD-1 Outbred mice
Format: in vivo
Settings: NGS fold-enrichment of TTM-001 matured AAV capsid variants in the brain of CD-1 Outbred mice; intravenous 1.0×10^12 VG/dose; 14 days in life; RNA; relative to non-matured TTM-001 control
From the text: This Example describes maturation of the TTM-001 (SEQ ID NO: 981 (amino acid) and 983 (DNA), comprising SEQ ID NO: 941) and TTM-002 (SEQ ID NO: 982 (amino acid) and 984 (DNA), comprising SEQ ID NO: 2) capsid variants to further enhance their transduction and biodistribution in the central nervous system and evolve the AAV capsid variants to provide further cross-species compatibility. Two approaches were used to mature the TTM-001 and TTM-002 capsid sequences in order to randomize and mutate within and around the peptide insert comprised within loop IV of the capsid variant. […] In the first maturation approach, sets of three contiguous amino acids were randomized across the mutagenesis region in the TTM-001 and TTM-002 sequences, which spanned from position 450 to position 466, numbered according to SEQ ID NO: 981 and 982. In the second maturation approach, mutagenic primers were used to introduce point mutations at a low frequency, scattered across the mutagenesis region in the TTM-001 and TTM-002 sequences ranging from position 449 to position 466, numbered according to SEQ ID NO: 981 and 982. AAV capsid variants arising from each maturation approach for TTM-001 were pooled together and AAV capsid variants arising from each maturation approach for TTM-002 were also pooled together, for subsequent testing and characterization in mice.
The library of pooled matured AAV capsid variants generated from TTM-001 or library of pooled matured AAV capsid variants generated from the TTM-002 matured AAV capsid variant each were intravenously injected into the tail vein of three female CD-1 Outbred mice (Charles River) at a dose of 1.0×10^12 VG/dose. After 14-days in life, the brains of the mice were isolated and RNA was extracted. Following RNA recovery and RT-PCR amplification, a systematic NGS enrichment analysis was performed to calculate the fold enrichment ratio relative to the corresponding TTM-001 or TTM-002 control, and the peptides comprised within the variants were identified. The data for the TTM-001 matured capsid variants is provided in Table 13 and the data for the TTM-002 matured capsid variants is provided in Table 14.

Sequence	Fold enrichment over TTM-001 [fold]
KDLRGSGSPHSKAQNQQT	2.238
KDSLGSGSPHSKAQNQQT	2.175
KEIKGSGSPHSKAQNQQT	2.140
KELVGSGSPHSKAQNQQT	2.019
KEVAGSGSPHSKAQNQQT	2.250
KEVGGSGSPHSKAQNQQT	2.358
KEVMGSGSPHSKAQNQQT	2.047
KGHEGSGSPHSKAQNQQT	2.151
KGINGSGSPHGKAQNQQT	2.084
KGLSGSGSPHSKAQNQQT	4.056
KGLVGSGSPHSKAQNQQT	2.412
KHRSGSGSPHSKAQNQQT	2.456
KPLDGSGSPHSKAQNQQT	2.488
KPLPGSGSPHSKAQNQQT	2.495
KPLRGSGSPHSKAQNQQT	2.486
KPPTGSGSPHSKAQNQQT	2.270
KPRLGSGSPHSKAQNQQT	2.406
KQPLGSGSPHSKAQNQQT	2.024
KRLFGSGSPHSKAQNQQT	2.330
KRSKGSGSPHSKAQNQQT	2.030
KSINGSGSPHSKAHDQQT	3.592
KSMNGSGSPHSRAQNQQT	5.145
KTIMRVGSPHSKAQNQQT	4.875
KTINASGSPHSKAQGQQT	2.108
KTINFLRSPHSKAQNQQT	3.331

Sequence	Fold enrichment over TTM-001 [fold]
KTINGALSPHRKAQNQQT	2.203
KTINGCSSPHRKAQNQQT	2.291
KTINGFLSPHRKAQNQQT	2.654
KTINGFRSPHLKAQNQQT	2.063
KTINGFRSPHSKAQNQQT	2.333
KTINGFSSPHRKAQNQQT	2.276
KTINGHLSPHRKAQNQQT	2.851
KTINGHRSPHLKAQNQQT	2.320
KTINGHSSPHRKAQNQQT	2.639
KTINGIASPHRKAQNQQT	2.099
KTINGILSPHRKAQNQQT	2.475
KTINGIRSPHTKAQNQQT	2.793
KTINGKLSPHMKAQNQQT	2.449
KTINGKRSPHSKAQNQQT	3.611
KTINGKTSPHGKAQNQQT	2.717
KTINGLASPHRKAQNQQT	2.737
KTINGLFSPHRKAQNQQT	2.331
KTINGLLSPHRKAQNQQT	3.026
KTINGLLSPHWKAQNQQT	4.173
KTINGLPSPHRKAQNQQT	2.719
KTINGLRSPHRKAQNQQT	3.676
KTINGLRSPHSKAQNQQT	2.238
KTINGLTSPHRKAQNQQT	2.663
KTINGLVSPHCKAQNQQT	2.605
KTINGMCSPHSKAQNQQT	2.006

Sequence	Fold enrichment over TTM-001 [fold]
KTINGMKSPHSKAQNQQT	2.413
KTINGMLSPHRKAQNQQT	2.646
KTINGMRSPHGKAQNQQT	2.527
KTINGMRSPHVKAQNQQT	2.937
KTINGMSSPHRKAQNQQT	2.352
KTINGNLSPHRKAQNQQT	2.250
KTINGNVSPHRKAQNQQT	2.043
KTINGPLSPHCKAQNQQT	2.194
KTINGPLSPHRKAQNQQT	2.028
KTINGQRSPHSKAQNQQT	2.590
KTINGQRSPHVKAQNQQT	2.596
KTINGRASPHVKAQNQQT	2.272
KTINGRHSPHLKAQNQQT	2.369
KTINGRISPHGKAQNQQT	2.492
KTINGRISPHLKAQNQQT	2.028
KTINGRKSPHSKAQNQQT	2.985
KTINGRLSPHFKAQNQQT	2.097
KTINGRLSPHRKAQNQQT	2.238
KTINGRPSPHIKAQNQQT	2.155
KTINGRPSPHSKAQNQQT	2.276
KTINGRPSPHVKAQNQQT	2.419
KTINGRQSPHAKAQNQQT	2.026
KTINGRQSPHTKAQNQQT	2.294
KTINGRQSPHVKAQNQQT	2.557
KTINGRRSPHLKAQNQQT	2.391

Sequence	Fold enrichment over TTM-001 [fold]
KTINGRRSPHTKAQNQQT	2.069
KTINGRSSPHFKAQNQQT	2.428
KTINGRSSPHGKAQNQQT	3.035
KTINGRSSPHPKAQNQQT	2.596
KTINGRSSPHRKAQNQQT	2.965
KTINGRTSPHAKAQNQQT	2.060
KTINGRYSPHSKAQNQQT	2.080
KTINGSASPHVFAQNQQT	2.186
KTINGSASPHWSAQNQQT	2.121
KTINGSCSPHLAAQNQQT	2.134
KTINGSCSPHLRAQNQQT	2.423
KTINGSCSPHPLAQNQQT	3.086
KTINGSCSPHRKAQNQQT	4.801
KTINGSCSPHSGAQNQQT	2.994
KTINGSCSPHSLAQNQQT	2.099
KTINGSCSPHVRAQNQQT	2.406
KTINGSESPHDSAQNQQT	2.164
KTINGSGSPHAFLQNQQT	2.475
KTINGSGSPHALFQNQQT	2.261
KTINGSGSPHCLAQNQQT	4.847
KTINGSGSPHCLLQNQQT	4.898
KTINGSGSPHCLSQNQQT	2.114
KTINGSGSPHCSAQNQQT	2.339
KTINGSGSPHCSLQNQQT	4.540
KTINGSGSPHCSSQNQQT	2.253

Sequence	Fold enrichment over TTM-001 [fold]
KTINGSGSPHCTLQNQQT	2.497
KTINGSGSPHCVAQNQQT	2.080
KTINGSGSPHEHNQNQQT	2.199
KTINGSGSPHELPQNQQT (KTINGSGSPHFLPQNQQT)	2.123
KTINGSGSPHFHLQNQQT	2.121
KTINGSGSPHFLLQNQQT	2.758
KTINGSGSPHFLNQNQQT	2.359
KTINGSGSPHFLRQNQQT	4.777
KTINGSGSPHFMRQNQQT	2.123
KTINGSGSPHGLWQNQQT	2.181
KTINGSGSPHGWAQNQQT	2.121
KTINGSGSPHIYLQNQQT	2.542
KTINGSGSPHIYRQNQQT	2.782
KTINGSGSPHLCLQNQQT	3.425
KTINGSGSPHLFRQNQQT	2.324
KTINGSGSPHLKRQNQQT	2.564
KTINGSGSPHLLFQNQQT	2.069
KTINGSGSPHLLWQNQQT	3.855
KTINGSGSPHLLYQNQQT	2.983
KTINGSGSPHLNWQNQQT	3.112
KTINGSGSPHLRFQNQQT	2.186
KTINGSGSPHLRRQNQQT	3.493
KTINGSGSPHLSCQNQQT	2.277
KTINGSGSPHLSWQNQQT	3.047
KTINGSGSPHLTWQNQQT	2.637
